Reference: US20230095509A1, “NON-FIBRILLAR HEMOGLOBIN S OLIGOMERS AND METHODS TO IDENTIFY MODULATORS OF HEMOGLOBIN S POLYMERIZATION” (REGENTS OF THE UNIVERSITY OF MINNESOTA, priority 2021, published 2023)
Entries after “also recorded” stand apart in the source; their conditions may differ.

Experiments:
[1] = biological target: T1, deoxyHbS oligomers (HbS-rhodamine red / HbS-Cy5) (Homo sapiens, UniProt P68871+P69905, E7V); test: Fluorescence lifetime (FLT) FRET assay of deoxyHbS oligomerization (LOPAC screen and dose response); assay type: biochemical
T1 construct: purchased Sigma
Method: Development of HTS platform for identification of small molecules that inhibit in vitro HbS nucleation: Sickle hemoglobin (HbS) (sigma) was labeled with either fluorescent donor (rhodamine red) or acceptor (Cy5) dyes (Thermo fisher scientific) via a cysteine thiol group. For labeling, lyophilized HbS (10 mg/ml) was dissolved in PBS (Sigma) and then centrifuged at 13000 g for five minutes at 4° C. to remove the debris. After centrifugation protein sample was incubated with TCEP (0.5-1 mM) for 20 minutes at room temperature to reduce the cysteine side-chain. This protein mixture was incubated with 1.5 mM dye (dissolved in DMSO or water) for two hours in the dark at room temperature or overnight at 4° C. Unreacted free dye was removed by dialysis against PBS. The degree of labeling was calculated by comparing the absorption of the fluorophore conjugated hemoglobin at 280 nm to the absorbance of the dye at its maximum wavelength. The dye concentration was measured by absorbance, using extinction coefficients of 250,000 M −1 cm -1 for Cy5 conjugates and 88000 M −1 cm -1 for Rhodamine Red conjugates.
High-Throughput Screening of LOPAC Library to Identify Compounds That Inhibit HbS Oligomerization Under Deoxy Condition: The LOPAC compounds (Thermo Fisher Scientific) were received in 96-well plates. Assay plates were prepared by transferring 5 nL of the 10 mM compound stocks or DMSO from the source plates to 1536-well black polypropylene plates (Greiner), using an Echo 550 acoustic dispenser (Labcyte). During screening, donor sample (HbS/Rhodamine Red) was mixed with acceptor (HbS/Cy5) at 1:5 ratios. Then protein samples were dispensed (5 μL, 25 μM) by a Multidrop Combi Reagent Dispenser (Thermo Fisher Scientific) into the 1536-well assay plates containing the compounds and incubated at room temperature for two hours. After incubation, protein samples were degassed for 10-15 minutes using vacuum argon degassing method. Lifetime measurements were taken by the fluorescence lifetime plate reader (Fluorescence Innovations, Inc).
Fluorescence Data Acquisition: We tested the functionality of the HbS FRET pair by measuring lifetimes of oxy-and deoxy HbA and HbS using a fluorescence lifetime plate reader (FIG. 3A). Lifetimes are reciprocally related to FRET, so a decrease in lifetime corresponds to an increase in FRET. Donor fluorescence was excited with a 532 nm laser (Teem Photonics SNG-20F-100, Meylan, France), delivering pulses of -0.3 μJ energy at a 20 kHz repetition rate, and emission was filtered with 546 nm long pass and 586/20 nm band pass filters. This filter was selected to exclude acceptor fluorescence, as only the lifetime of the donor fluorescent protein is required to calculate FRET (Equation (1)). The photomultiplier tube (PMT) voltage was adjusted so that the peak signals of the instrument response function (IRF) and FRET biosensor were similar.
High-Throughput Screening Data Analysis: Time resolve-fluorescence waveforms for each well were fitted with single-exponential decays using least-squares minimization global analysis software (Petersen et al., F2014, Rev Sci Instrum 85, 113101). FRET efficiency (E) was determined as the fractional decrease of donor lifetime (T_D ), due to the presence of acceptor fluorophore (T_DA) using equation 1: […]
These drug compounds were dissolved in DMSO to make 20 mM stock solution. Hits were screened at seven different concentrations. Protein samples were dispensed into the 96-well assay plates and incubated with hit compounds at room temperature for two hours. After incubation, protein samples were degassed for 10 minutes using vacuum argon degassing method. Lifetime measurements were taken by the fluorescence lifetime plate reader (Fluorescence Innovations, Inc).

[2] = biological target: deoxy-HbS oligomers (sickle hemoglobin, HbS) (Homo sapiens, UniProt P68871+P69905, E7V); test: Dynamic light scattering (DLS) of deoxy-HbS oligomers at sub-nucleating concentration; assay type: biochemical; conditions: HbS 25 μM, hit compounds 100 μM, two hours at room temperature, degassed with argon; FIG. 4C
Method: (FIG. 4A) Pilot screening with LOPAC library. Compounds that reduced the FRET efficiency below 3SD (black line) were selected for further characterization. […] Fluorescently labeled HbS samples were plated in a 1536 plate and treated separately with DMSO or the three hit compounds, chlormezanone, gabazine, and phosphoramidon disodium, in a dose-dependent manner from 0.1 to 1000 μM for 2 hours at room temperature and then vacuum degassed for 10 minutes, and then donor lifetimes were measured using a fluorescence plate reader. […] HbS samples (25 μM) were incubated separately with hit compounds (100 μM) or DMSO only for two hours at room temperature and degassed with argon for five minutes, and then DLS measurement were taken at room temperature. […] Effect of hit compounds on polymerization of deoxyHbS in high potassium phosphate buffer. Curves represent growth of polymer as a function of time in the presence or absence of drug.

Structure (SMILES)	FRET efficiency of HbS under deoxy conditions ([1]; known polymerization inhibitors as controls, FIG. 1D)	FRET efficiency in dose response ([1]; 0.1 to 1000 μM, 2 hours at room temperature, then degassed, FIG. 4B)	size of deoxyHbS oligomers (DLS effective diameter) relative to control [2]
N[C@@H](Cc1ccccc1)C(=O)O [phenylalanine]	decreased the FRET efficiency; also recorded: reduced FRET efficiency		
CC(C)C[C@H](NP(=O)(O)O[C@@H]1O[C@@H](C)[C@H](O)[C@@H](O)[C@H]1O)C(=O)N[C@@H](Cc1c[nH]c2ccccc12)C(=O)O [phosphoramidon disodium]		decreased FRET efficiency in a dose-dependent manner	significantly decreased the oligomer size
